{"source": "patent US10898535B2", "about": "“Composition for inhibiting and preventing myopathy, containing bean leaf extract as active ingredient” (AMOREPACIFIC CORPORATION, priority 2015, dated 2021)", "key": {"Murf1 gene (mRNA)": {"system": "Murf1 gene (mRNA)", "experiment": "Inhibition of expression of Murf1 gene (mRNA) in dexamethasone-induced muscle loss model (PCR)", "type": "cell-based, mouse", "settings": "differentiated C2C12, dexamethasone 1 μM, dexibuprofen 100 μM, 6 hours, control group = dexamethasone only", "procedure": "(§1) In the present Experimental Example 2, experiments were conducted to evaluate the inhibitory efficacy of the bean leaf extract against the overexpression of Atrogin1 and Murf1 mRNA in the muscle loss induced model by dexamethasone. The experimental group, the control group and the comparison group of Experimental Example 2 were prepared in the same manner as Experimental Example 1. Provided that, when 6 hours had elapsed since the treatment with each final material, RNA was extracted with trizol reagent (TRIzol agent, Invitrogen) after washing twice with cold saline, […] Expression patterns of each gene were measured using primers and probes (Applied biosystems) previously designed for genes of the synthesized cDNA and Atrogin1, Murf1, and GAPD. At this time, polymerase chain reaction (PCR) and analysis were performed using a Rotor-Gene 3000 system (Corbett Research, Sydney, Australia). To increase the reliability, each sample was repeatedly measured three times to derive the average value."}, "C2C12 (mouse myoblast)": {"system": "C2C12 (mouse myoblast)", "experiment": "Ability to recover cell activity of myocyte in dexamethasone-induced muscle loss model (CCK8, absorbance 450 nm)", "type": "cell-based", "settings": "differentiated C2C12, dexamethasone 1 μM, dexibuprofen 100 μM, 24 hours, control group = dexamethasone only", "procedure": "In the present Experimental Example 1, the experiments were conducted to evaluate the recovery efficacy of the bean leaf extract on the decrease in cell activity of myocyte in a model of muscle loss induced by Dexamethasone. Dexamethasone is a kind of glucocorticoid, and increases expression of the Atrogin1 and Murf1 in vitro and in vivo to accelerate proteolytic degradation, thereby resulting in decrease in skeletal muscle, induction of myocyte death, and reduction of cell activity. Accordingly, an experimental model of dexamethasone to myocyte is a useful model for evaluating the function of sarcopenia and is widely used. The C2C12 (mouse myoblast) used in Experimental Example 1 was purchased from American Type Culture Collection (Manassas, Va., USA) and the cells were cultured in DMEM containing 10% FBS, 100 units/mL Penicillin, and […] streptomycin. Specific experimental methods are as follows. […] After 24 hours of treatment with the material, the medium was replaced with medium containing 10% solution of CCK8 […], and allowed to react for 10 minutes, and the cell activity was measured by measuring the absorbance at 450 nm. To increase the reliability, each sample was repeatedly measured three times to derive the average value."}, "Atrogin1 gene (mRNA)": {"system": "Atrogin1 gene (mRNA)", "experiment": "Inhibition of expression of Atrogin1 gene (mRNA) in dexamethasone-induced muscle loss model (PCR)", "type": "cell-based, mouse", "settings": "differentiated C2C12, dexamethasone 1 μM, dexibuprofen 100 μM, 6 hours, control group = dexamethasone only", "procedure": "as §1"}}}
{"smiles": "CC(C)Cc1ccc([C@H](C)C(=O)O)cc1", "note": "[Dexibuprofen, dexibuprofen]", "values": [{"measurement": "Change in Murf1 gene expression relative to control group (%)", "setting": "Murf1 gene (mRNA)", "value": "−3.3", "unit": "%"}, {"measurement": "Change in Murf1 gene expression relative to control group (%)", "setting": "Murf1 gene (mRNA); listed as dexibuprofen", "value": "insignificant"}, {"measurement": "Change in cell activity relative to control group (%)", "setting": "C2C12 (mouse myoblast)", "value": "−4.1", "unit": "%"}, {"measurement": "Change in cell activity relative to control group (%)", "setting": "C2C12 (mouse myoblast); listed as dexibuprofen", "value": "no recovery of myocyte activity is observed"}, {"measurement": "Change in Atrogin1 gene expression relative to control group (%)", "setting": "Atrogin1 gene (mRNA)", "value": "−2.6", "unit": "%"}, {"measurement": "Change in Atrogin1 gene expression relative to control group (%)", "setting": "Atrogin1 gene (mRNA); listed as dexibuprofen", "value": "insignificant"}]}
